Measured values published in patent US20250283073A1 (ORNA THERAPEUTICS, INC., priority 2021, published 2025).
“Also recorded” adds a separate entry of the source.

Assays:
[1] = tested on: activated primary human T cells (TCLs); experiment: IRES screening (Table 28), Gaussia luciferase LNP-oRNA in activated primary human T cells (TCLs); conditions: protein expression relative to positive control (SEQ ID NO 3282 = 1)
Description: (§1) Exemplary constructs included a 5′ enhanced intron element, a 5′ enhanced exon element, a putative IRES, a coding element encoding Gaussia Luciferase, a 3′ enhanced exon element, and a 3′ enhanced intron element.
(§2) Purified oRNA was nanoprecipitated with lipids to form LNP-oRNA constructs. LNPs were formulated first by creating empty lipid nanoparticles using a Precision Nanosystems Ignite instrument with a “NextGen” mixing chamber. Ethanol phase contained Lipid 39 from Table 10b, DSPC, cholesterol, and DMG-PEG 2000 (Avanti Polar Lipids, Inc., Alabaster, AL) at a molar ratio of 45:9:44:2 was combined with 50 mM sodium acetate buffer at pH 4.5. A 3:1 aqueous to ethanol mixing ratio was used. The empty LNPs were then dialyzed in 1 L of 1×PBS and exchanged 2 times over 18 hours. […] A 3:1 aqueous to empty lipid nanoparticle mixing ratio was used. The LNPs final ionizable lipid to RNA phosphate ratio was at 6.0.
(§3) Primary human skeletal myotubes (MYOs), primary human hepatocytes (PHHs), and activated primary human T cells (TCLs) were treated with formulated LNP-oRNA in triplicate. Protein expression in supernatant was assessed by luminescence measurements 48 hours following transfection.
(§4) Total luminescent signal was normalized across replicate plates to control for plate-wide differences between replicates due to flash assay readout timing. Plates with positive controls having <2× signal over background were excluded from analysis. Background was subtracted based on empty wells. Each test well replicate was normalized to its respective plate control and then the replicates were averaged.
(§5) Measured numbers are normalized to a control (caprine kobuvirus IRES, SEQ ID NO: 3282) and represented as a fold change.

[2] = tested on: primary human hepatocytes (PHHs); experiment: IRES screening (Table 28), Gaussia luciferase LNP-oRNA in primary human hepatocytes (PHHs); conditions: protein expression relative to positive control (SEQ ID NO 3282 = 1)
Description: as §1, §2, §3, §4, §5

[3] = tested on: primary human skeletal myotubes (MYOs); experiment: IRES screening (Table 28), Gaussia luciferase LNP-oRNA in primary human skeletal myotubes (MYOs); conditions: protein expression relative to positive control (SEQ ID NO 3282 = 1)
Description: as §1, §2, §3, §4, §5

splenic immune cells = experiment: Cre circRNA LNP transfection of splenic immune cells in Ai9 Cre reporter mice (tdTomato); assay type: in vivo; conditions: 0.5 mg/kg Cre circRNA LNP i.v., 48 hr, named by ionizable lipid, 0.5 mg/kg
Description: Circular RNAs encoding Cre recombinase (Cre) are encapsulated into lipid nanoparticles as previously described. Female, 6-8 week old B6.Cg-Gt(ROSA)26Sortm9(CAG-tdTomato)Hze/J (Ai9) mice were dosed with lipid nanoparticles at 0.5 mg/kg RNA intravenously. Fluorescent tdTomato protein was transcribed and translated in Ai9 mice upon Cre recombination, meaning circular RNAs have been delivered to and translated in tdTomato+ cells. After 48 hr, mice were euthanized and the spleens were harvested, processed into a single cell suspension, and stained with various fluorophore-conjugated antibodies for immunophenotyping via flow cytometry.
Ai9 mice (B6.Cg-Gt(ROSA)26Sortm9(CAG-tdTomato)Hze/J, female, 6-8 weeks, n=3 per group) were injected i.v. with 0.5 mg/kg Cre circRNA LNPs or PBS. Ai9 mice transcribe and translate the fluorescent reporter tdTomato upon Cre recombination; meaning cells which are tdTomato+ have successfully been transfected with Cre circRNA. […] Flow cytometry was performed using an Attune Nxt Flow Cytometer (Thermo).

CCCCCCCCC(CCCCCC)C(=O)OCCCCCCCCCN(CCCCO)CCCCCCCCCOC(=O)C(CCCCCC)CCCCCCCC (centres unmarked) [Lipid 22]
TCL AVG [Fold Change] [1]: 0.0309 Fold Change
PHH AVG [Fold Change] [2]: 0.0926 Fold Change
MYO AVG [Fold Change] [3]: 0.009137 Fold Change

CCCCC(CC)C(=O)OCCCCCCCCCN(CCCO)CCCCCCCCCOC(=O)C(CC)CCCC (centres unmarked) [Lipid 43]
TCL AVG [Fold Change] [1]: 0.2866 Fold Change
PHH AVG [Fold Change] [2]: 0.456 Fold Change
MYO AVG [Fold Change] [3]: 0.11 Fold Change

CCCCCCC(CCCC)COC(=O)CCCCCCCN(CCCCO)CCCCCCCC(=O)OCC(CCCC)CCCCCC (centres unmarked) [Lipid 49]
TCL AVG [Fold Change] [1]: 0.07252 Fold Change
PHH AVG [Fold Change] [2]: 0.6215 Fold Change
MYO AVG [Fold Change] [3]: 0.1952 Fold Change

CCCCCCCCC(CCCCCC)C(=O)OCCCCCCN(CCCCCCOC(=O)C(CCCCCC)CCCCCCCC)CC(O)CO (centres unmarked) [Lipid 30]
TCL AVG [Fold Change] [1]: 0.373 Fold Change
PHH AVG [Fold Change] [2]: 0.3984 Fold Change
MYO AVG [Fold Change] [3]: 0.1967 Fold Change

CCCCCCCCC(CCCCCC)C(=O)OCCCCCCN(CCCCCCOC(=O)C(CCCCCC)CCCCCCCC)CC(O)CC (centres unmarked) [Lipid 40]
TCL AVG [Fold Change] [1]: 0.05108 Fold Change
PHH AVG [Fold Change] [2]: 0.2391 Fold Change
MYO AVG [Fold Change] [3]: 0.199 Fold Change

CCCCCCCCC(CCCCCC)COC(=O)CCCCCN(CCCCCC(=O)OCC(CCCCCC)CCCCCCCC)CCCC(=O)OCC (centres unmarked) [Lipid 39]
TCL AVG [Fold Change] [1]: 0.003256 Fold Change
PHH AVG [Fold Change] [2]: 0.003901 Fold Change
MYO AVG [Fold Change] [3]: 0.0002919 Fold Change

CCCCCCCCCCC(CCCCCCCC)C(=O)OCCCCCCN(CCCO)CCCCCCOC(=O)C(CCCCCCCC)CCCCCCCCCC (centres unmarked) [Lipid 37]
TCL AVG [Fold Change] [1]: 0.0237 Fold Change
PHH AVG [Fold Change] [2]: 0.2564 Fold Change
MYO AVG [Fold Change] [3]: 0.03859 Fold Change

CCCCCCCCC(CCCCCC)C(=O)OCCCCCCN(CCCCCCOC(=O)C(CCCCCC)CCCCCCCC)CCCOC (centres unmarked) [Lipid 41]
TCL AVG [Fold Change] [1]: 0.02752 Fold Change
PHH AVG [Fold Change] [2]: 0.01033 Fold Change
MYO AVG [Fold Change] [3]: 0.0004126 Fold Change

CCCCCCCCC(CCCCCC)C(=O)OCCCCCCN(CCCCCCOC(=O)C(CCCCCC)CCCCCCCC)CCCn1ccnc1 (centres unmarked) [Lipid 10a-26]
splenic immune cells expressing tdTomato (splenic immune cells): significantly higher myeloid and T cell transfection compared with Lipid 93-S14; also recorded: effective at delivering circular RNAs to many splenic immune cell subsets

CCCCCCCCC(CCCCCC)COC(=O)CCCCCCCN(CCO)CCCCCCCC(=O)OCC(CCCCCC)CCCCCCCC (centres unmarked) [Lipid 46]
TCL AVG [Fold Change] [1]: 0.2472 Fold Change
PHH AVG [Fold Change] [2]: 0.503 Fold Change
MYO AVG [Fold Change] [3]: 0.2249 Fold Change

CCCCCCCCC(CCCCCC)C(=O)OCCCCCCN(CCC#N)CCCCCCOC(=O)C(CCCCCC)CCCCCCCC (centres unmarked) [Lipid 47]
TCL AVG [Fold Change] [1]: 0.02259 Fold Change
PHH AVG [Fold Change] [2]: 0.08942 Fold Change
MYO AVG [Fold Change] [3]: 0.00246 Fold Change

CCCCCCC(CCCC)C(=O)OCCCCCCN(CCO)CCCCCCOC(=O)C(CCCC)CCCCCC (centres unmarked) [Lipid 29]
TCL AVG [Fold Change] [1]: 0.01096 Fold Change
PHH AVG [Fold Change] [2]: 0.008274 Fold Change
MYO AVG [Fold Change] [3]: 0 Fold Change

CCCCCCCCC(CCCCCC)C(=O)OCCCCCCN(CCCCCCOC(=O)C(CCCCCC)CCCCCCCC)CCCC(=O)OCC (centres unmarked) [Lipid 48]
TCL AVG [Fold Change] [1]: 0.002803 Fold Change
PHH AVG [Fold Change] [2]: 0.4247 Fold Change
MYO AVG [Fold Change] [3]: 0.1303 Fold Change

CCCCC(CC)C(=O)OCCCCCCCCCN(CCCCO)CCCCCCCCCOC(=O)C(CC)CCCC (centres unmarked) [Lipid 24]
TCL AVG [Fold Change] [1]: 0.003111 Fold Change
PHH AVG [Fold Change] [2]: 0.0000246 Fold Change
MYO AVG [Fold Change] [3]: 0 Fold Change

CCCCCCCCC(CCCCCC)C(=O)OCCCCCCN(CCCCCCOC(=O)C(CCCCCC)CCCCCCCC)CCCn1ccnc1C (centres unmarked) [Lipid 10a-27]
splenic immune cells expressing tdTomato (splenic immune cells): significantly higher myeloid and T cell transfection compared with Lipid 93-S14; also recorded: effective at delivering circular RNAs to many splenic immune cell subsets

CCCCCCC(CCCC)C(=O)OCCCCCCN(CCCO)CCCCCCOC(=O)C(CCCC)CCCCCC (centres unmarked) [Lipid 28]
TCL AVG [Fold Change] [1]: 0.1126 Fold Change
PHH AVG [Fold Change] [2]: 0.1221 Fold Change
MYO AVG [Fold Change] [3]: 0.01764 Fold Change

CCCCCCCCCCCCC(CCCCCCCCCC)C(=O)OCCCCCCN(CCCCO)CCCCCCOC(=O)C(CCCCCCCCCC)CCCCCCCCCCCC (centres unmarked) [Lipid 27]
TCL AVG [Fold Change] [1]: 0.02442 Fold Change
PHH AVG [Fold Change] [2]: 0.09892 Fold Change
MYO AVG [Fold Change] [3]: 0.01866 Fold Change

CCCCCCCCCCC(CCCCCCCC)C(=O)OCCCCCCN(CCCCO)CCCCCCOC(=O)C(CCCCCCCC)CCCCCCCCCC (centres unmarked) [Lipid 26]
TCL AVG [Fold Change] [1]: 0 Fold Change
PHH AVG [Fold Change] [2]: 0.01252 Fold Change
MYO AVG [Fold Change] [3]: 0.002759 Fold Change

CCCCCCCCC(CCCCCC)C(=O)OCCCCCCN(CCCCCCOC(=O)C(CCCCCC)CCCCCCCC)CCCC(=O)OCC (centres unmarked) [Lipid 34]
TCL AVG [Fold Change] [1]: 0.2638 Fold Change
PHH AVG [Fold Change] [2]: 0.4644 Fold Change
MYO AVG [Fold Change] [3]: 0.2168 Fold Change

CCCCCCCCC(CCCCCC)C(=O)OCCCCCCN(CCCCCCOC(=O)C(CCCCCC)CCCCCCCC)CCCCNC(C)=O (centres unmarked) [Lipid 36]
TCL AVG [Fold Change] [1]: 0.0009344 Fold Change
PHH AVG [Fold Change] [2]: 0 Fold Change
MYO AVG [Fold Change] [3]: 0 Fold Change

CCCCCCCCCCCCC(CCCCCCCCCC)C(=O)OCCCCCCN(CCCO)CCCCCCOC(=O)C(CCCCCCCCCC)CCCCCCCCCCCC (centres unmarked) [Lipid 44]
TCL AVG [Fold Change] [1]: 0.01421 Fold Change
PHH AVG [Fold Change] [2]: 0.01602 Fold Change
MYO AVG [Fold Change] [3]: 0 Fold Change

CCCCCCCCC(CCCCCC)C(=O)OCCCCCCN(CCCCCCOC(=O)C(CCCCCC)CCCCCCCC)CCCCOC(C)=O (centres unmarked) [Lipid 33]
TCL AVG [Fold Change] [1]: 0.2088 Fold Change
PHH AVG [Fold Change] [2]: 0.4409 Fold Change
MYO AVG [Fold Change] [3]: 0.3574 Fold Change

CCCCCCCCC(CCCCCC)C(=O)OCCCCCCN(CCCCCCOC(=O)C(CCCCCC)CCCCCCCC)C(CC)CO (centres unmarked) [Lipid 31]
TCL AVG [Fold Change] [1]: 0.4863 Fold Change
PHH AVG [Fold Change] [2]: 0.6943 Fold Change
MYO AVG [Fold Change] [3]: 0.5881 Fold Change

CCCCCCCCC(CCCCCC)C(=O)OCCCCCCN(CCCC#N)CCCCCCOC(=O)C(CCCCCC)CCCCCCCC (centres unmarked) [Lipid 35]
TCL AVG [Fold Change] [1]: 0.004133 Fold Change
PHH AVG [Fold Change] [2]: 0.005378 Fold Change
MYO AVG [Fold Change] [3]: 0 Fold Change

CCCCCCCCC(CCCCCC)C(=O)OCCCCCCCCCCCCN(CCCCO)CCCCCCCCCCCCOC(=O)C(CCCCCC)CCCCCCCC (centres unmarked) [Lipid 23]
TCL AVG [Fold Change] [1]: 0.002417 Fold Change
PHH AVG [Fold Change] [2]: 0.0008387 Fold Change
MYO AVG [Fold Change] [3]: 0 Fold Change

CCCCCCCCCCCCCCCC(O)C(CO)N(CCCCCCOC(=O)C(CCCCCC)CCCCCCCC)CCCCCCOC(=O)C(CCCCCC)CCCCCCCC (centres unmarked) [Lipid 32]
TCL AVG [Fold Change] [1]: 0.02974 Fold Change
PHH AVG [Fold Change] [2]: 0.3276 Fold Change
MYO AVG [Fold Change] [3]: 0.2163 Fold Change

CCCCCCCCC(CCCCCC)C(=O)OCCCCCCCCCCCCN(CCCO)CCCCCCCCCCCCOC(=O)C(CCCCCC)CCCCCCCC (centres unmarked) [Lipid 38]
TCL AVG [Fold Change] [1]: 0.02186 Fold Change
PHH AVG [Fold Change] [2]: 0.2209 Fold Change
MYO AVG [Fold Change] [3]: 0.07838 Fold Change

CCCCCCC(CCCC)C(=O)OCCCCCCCCCN(CCCCO)CCCCCCCCCOC(=O)C(CCCC)CCCCCC (centres unmarked) [Lipid 25]
TCL AVG [Fold Change] [1]: 0.452 Fold Change
PHH AVG [Fold Change] [2]: 0.1559 Fold Change
MYO AVG [Fold Change] [3]: 0.0738 Fold Change

CCCCCCC(CCCC)C(=O)OCCCCCCN(CCCCO)CCCCCCOC(=O)C(CCCC)CCCCCC (centres unmarked) [Lipid 42]
TCL AVG [Fold Change] [1]: 0.09322 Fold Change
PHH AVG [Fold Change] [2]: 0.3425 Fold Change
MYO AVG [Fold Change] [3]: 0.07198 Fold Change

CCCCCCCCC(CCCCCC)COC(=O)CCCCCCCCCN(CCCCO)CCCCCCCCCC(=O)OCC(CCCCCC)CCCCCCCC (centres unmarked) [Lipid 21]
TCL AVG [Fold Change] [1]: 0.0748 Fold Change
PHH AVG [Fold Change] [2]: 0.1363 Fold Change
MYO AVG [Fold Change] [3]: 0.02126 Fold Change
